≈ marks a conversion by molar mass, not a printed value.
What was measured:
Assay in all cases: In vitro antifungal activity, serial agar dilution method (Table 1)
Type in all cases: cell-based
[1] = tested on: Cryptococcus neoformans IAM4514; conditions: Cryptococcus neoformans, IAM4514; Sabouraud dextrose agar (pH 7.0); 28°C for 40 hours
Experimental: (§1) The inoculum size was adjusted to 10⁶ cells/ml, and a volume of approximately 0.003 ml of fungal suspension was applied to the surface of the antibiotic containing agar plates with a multiinoculator. After incubation, the lowest concentration of antibiotic causing virtually complete inhibition of fungal growth was determined as the minimum inhibitory concentration (MIC). Table 1. [table]

[2] = tested on: Cryptococcus neoformans D49; conditions: Cryptococcus neoformans, D49; Sabouraud dextrose agar (pH 7.0); 28°C for 40 hours; read-out: MIC, Cryptococcus neoformans D49
Experimental: as §1

[3] = tested on: Candida albicans IAM4888; conditions: Candida albicans, IAM4888; Sabouraud dextrose agar (pH 7.0); 28°C for 40 hours
Experimental: as §1

[4] = tested on: Petriellidium boydii IFO8078; conditions: Scedosporium boydii, IFO8078; Sabouraud dextrose agar (pH 7.0); 28°C for 40 hours
Experimental: as §1

[5] = tested on: Trichophyton mentagrophytes #4329; conditions: Trichophyton mentagrophytes; Sabouraud dextrose agar (pH 7.0); 28°C for 40 hours
Experimental: as §1

[6] = tested on: Trichophyton mentagrophytes D155; conditions: Trichophyton mentagrophytes, D155; Sabouraud dextrose agar (pH 7.0); 28°C for 40 hours
Experimental: as §1

[7] = tested on: Candida albicans A9540; conditions: Candida albicans, A9540; Sabouraud dextrose agar (pH 7.0); 28°C for 40 hours
Experimental: as §1

[8] = tested on: Aspergillus fumigatus IAM2034; conditions: Aspergillus fumigatus, IAM2034; Sabouraud dextrose agar (pH 7.0); 28°C for 40 hours
Experimental: as §1

[9] = tested on: Sprotricosis schenckii IFO8158; conditions: Sabouraud dextrose agar (pH 7.0); 28°C for 40 hours; read-out: MIC, Sprotricosis schenckii IFO8158
Experimental: as §1

[10] = tested on: Aspergillus fumigatus IAM2530; conditions: Aspergillus fumigatus, IAM2530; Sabouraud dextrose agar (pH 7.0); 28°C for 40 hours
Experimental: as §1

SMILES: CN[C@@H]1[C@H](O[C@@H]2OC[C@@H](O)[C@H](O)[C@H]2O)[C@@H](O)[C@H](O[C@H]2c3cc(C)c(C(=O)N[C@H](C)C(=O)O)c(O)c3-c3c(cc4c(c3O)C(=O)c3cc(OC)cc(O)c3C4=O)[C@@H]2O)O[C@@H]1C [Pradimicin A, reference compound]
- MIC [1]: 0.8 µg/mL (≈ 0.951 µM)
- MIC [2]: 0.8 µg/mL (≈ 0.951 µM)
- MIC [3]: 6.3 µg/mL (≈ 7.49 µM)
- MIC [4]: 12.5 µg/mL (≈ 14.9 µM)
- MIC [5]: 3.1 µg/mL (≈ 3.69 µM)
- MIC [6]: 6.3 µg/mL (≈ 7.49 µM)
- MIC [7]: 50 µg/mL (≈ 59.5 µM)
- MIC [8]: 3.1 µg/mL (≈ 3.69 µM)
- MIC [9]: 1.6 µg/mL (≈ 1.9 µM)
- MIC [10]: 3.1 µg/mL (≈ 3.69 µM)

From patent EP0428132A1, “Pradimicin derivatives” (Bristol-Myers Squibb Company, priority 1989, dated 1991)
